# Laboratory results reported in patent US11084795B2, “CFTR regulators and methods of use thereof” (The Regents of the University of California, priority 2015, dated 2021).
# What was measured:
# [1] = tested on: CFTR at the ocular surface; experiment: Ocular surface potential difference (PD) in living mice; type: in vivo, mouse; details: wild-type mice, 1-10 μM
# Procedure: Open-circuit transepithelial PD were measured continuously in anesthetized mice in response to serial perfusions of different solutions over the ocular surface, as described (21). Mice were anesthetized with Avertin (2,2,2-tribromoethanol, 125 mg/kg intraperitoneal, Sigma-Aldrich, St. Louis, Mo., USA), and core temperature was maintained at 37° C. using a heating pad. Eyes were oriented with the cornea and conjunctiva facing upward and exposed by retracting the eyelid with cross-action forceps. Solutions were isosmolar (320±10 mOsM; compositions provided in ref. 21) and contained 10μ[…] indomethacin to prevent CFTR activation by prostaglandins. The ocular surface was perfused at 6 mL/min through plastic tubing using a multireservoir gravity pinch-valve system (ALA Scientific, Westbury, N.Y., USA) and variable-flow peristaltic pump (medium flow model; Fisher Scientific, Fair Lawn, N.J., USA). A probe catheter was fixed 1 mm above the cornea using a micropositioner and a suction cannula was positioned 3 mm from the orbit. The measuring electrode was in contact to the perfusion catheter and connected to a high-impedance voltmeter (IsoMilivolt Meter; WPI). The reference electrode was grounded via a winged 21-gauge needle filled with isosmolar saline, and inserted subcutaneously in the abdomen. Measuring and reference electrodes consisted of Ag/AgCl with 3 M KCl agar bridges.
# An open-circuit potential difference (PD) method developed in our lab was used to evaluate compound activity at the ocular surface in vivo, as depicted in FIG. 3A (21). Cl^− channel function was quantified by measuring PD during continuous perfusion of the ocular surface with a series of solutions that imposed a transepithelial Cl^− gradient and contained various channel agonists and/or inhibitors. The ocular surface was first perfused with isosmolar saline to record the baseline PD. Amiloride was then added to the perfusate, followed by exchange to a low Cl^− solution in which Cl^− with an impermeant anion, gluconate. These maneuvers allow for direct visualization of CFTR activation in response to addition of candidate CFTR activators.
# Ocular surface potential difference measurements. Open-circuit transepithelial PD were measured continuously in anesthetized mice in response to serial perfusions of different solutions over the ocular surface, as described (21). Mice were anesthetized with Avertin (2,2,2-tribromoethanol, 125 mg/kg intraperitoneal, Sigma-Aldrich, St. Louis, Mo., USA), and core temperature was maintained at 37° C. using a heating pad. Eyes were oriented with the cornea and conjunctiva facing upward and exposed by retracting the eyelid with cross-action forceps. […]
# whole-gut transit = experiment: Whole-gut transit time in mice; type: in vivo, mouse
# Procedure: Whole-gut transit time was determined using an orally administered marker (200 μL, 5% Evans Blue, 5% gum Arabic) and measuring the time of its appearance in stool. Mice were administered loperamide and CFTRact-J027 (10 mg/kg) or vehicle intraperitoneally at zero time. For ex vivo contractility measurements, mice were euthanized by avertin overdose (200 mg/kg, 2,2,2-tribromethanol, Sigma-Aldrich) and ileum and colon segments of ˜2 cm length were isolated and washed with Krebs-Henseleit buffer. The ends of the intestinal segments were tied, connected to a force transducer (Biopac Systems, Goleta, Calif., USA) and tissues were transferred to an organ chamber (Biopac Systems) containing Krebs-Henseleit buffer at 37° C. aerated with 95% O2, 5% CO2. Ileum and colon were stabilized for 60 min with resting tensions of 0.5 and 0.2 g respectively, and solutions were changed every 15 min. Effects of CFTRact-J027 on baseline and loperamide-suppressed isometric intestinal contractions were recorded.
# In vivo intestinal transit and ex vivo intestinal contractility. Whole-gut transit time was determined using an orally administered marker (200 μL, 5% Evans Blue, 5% gum Arabic) and measuring the time of its appearance in stool. […] Effects of CFTRact-J027 on baseline and loperamide-suppressed isometric intestinal contractions were recorded.
# [2] = Stability in simulated gastric fluid (pH 2); type: physicochemical; details: 10 μM, pH 2, 37° C., 3 h
# Procedure: (§1) To study gastric acid stability CFTRact-J027 (10 μM) was dissolved in simulated gastric fluid (0.2 NaCl, 0.7% HCl, pH 2) and incubated for 3 h at 37° C. To study in vitro metabolic stability CFTRact-J027 (5 μM) was incubated for specified times at 37° C. with human liver microsomes (1 mg protein/ml; Sigma-Aldrich) in potassium phosphate buffer (100 mM) containing 1 mM NADPH. After specified incubation periods the mixtures were chilled on ice, and 0.5 ml of ice-cold ethyl acetate was added. Samples were centrifuged for 15 min at 3000 rpm, the supernatants evaporated to dryness, and the residues were dissolved in 100 μL mobile phase (acetonitrile:water, 3:1) and assayed by liquid chromatography mass spectrometry (LC/MS). The solvent system consisted of a linear gradient from 5 to 95% acetonitrile over 16 min (0.2 ml/min flow). Mass spectra were acquired on a mass spectrometer (Waters 2695 and Micromass ZQ, Milford, Mass.) using electrospray (+) ionization, mass ranging from 100 to 1500 Da, cone voltage 40 V.
# [3] = In vitro metabolic stability in human liver microsomes; type: in vitro ADME
# Procedure: as §1
smiles,measurement,setting,value
"Nc1ccc([N+](=O)[O-])cc1-c1nc2ccccc2n(Cc2ccccc2)c1=O [CFTRact-J027, 3-(2-amino-5-nitrophenyl)-1-benzylquinoxalin-2(1H)-one]",change in ocular surface PD,[1],large hyperpolarizations
same,whole-gut transit time in cystic fibrosis mice,whole-gut transit; cystic fibrosis mice,no effect on whole-gut transit time
same,whole-gut transit time,"whole-gut transit; loperamide-treated wild-type mice, 10 mg/kg ip",normalized
same,degradation in simulated gastric fluid,[2],no compound degradation
same,compound remaining at 60 min,[3]; human hepatic microsomes,34%
same,half-life at 5 μM,"[3]; human, liver microsomes, 5 μM, NADPH, read-out: elimination half-life in human hepatic microsomes",~35 min
